Results: patent US12318373B2, “Methods of treating gastrointestinal stromal tumors” (Deciphera Pharmaceuticals, LLC, priority 2019, dated 2025)

Columns and labels:
[1] = test system: GIST; assay: Example 3: clinical study in second-line through fourth-line plus GIST, efficacy at ≥100 mg daily; type: in vivo, human; details: for Objective Response Rate by Best Response Includes Unconfirmed: RECIST 1.1, investigator-assessed
Protocol: Results. Data from 178 GIST patients receiving ripretinib at doses of ≥100 mg daily are noted in Table 2. The table includes investigator-assessed objective response rate (ORR) by best response, disease control rate (DCR) and median progression free survival (mPFS), all of which were determined by Response Evaluation Criteria in Solid Tumors (RECIST) version 1.1.

[2] = test system: advanced GIST; assay: Example 2: randomized, double-blind, placebo-controlled study, efficacy (PFS, ORR, OS); type: in vivo, human; details: for PFS by BICR: events, % / PFS by BICR: number of events: N = 85
Source text: Example 2. A Randomized, Double-blind, Placebo-controlled, International, Multicenter Study to Evaluate the Safety, Tolerability, and Efficacy of Ripretinib Compared to Placebo in Patients with Advanced GIST Whose Previous Therapies Have Included Imatinib, Sunitinib, and Regorafenib
(§1) This study was a randomized (2:1), double-blind, placebo-controlled, international, multicenter study to evaluate the safety, tolerability, and efficacy of ripretinib compared to placebo in 129 patients with advanced GIST whose previous therapies have included at least imatinib, sunitinib, and regorafenib. Patients were randomized 2:1 to either 150 mg of ripretinib or placebo once daily. The primary efficacy endpoint is progression-free survival (PFS) as determined by independent radiologic review using modified Response Evaluation Criteria in Solid Tumors (RECIST). Secondary endpoints as determined by independent radiologic review using modified RECIST include Objective Response Rate (ORR), Time to Tumor Progression (TTP) and Overall Survival (OS).
Patients whose disease progressed during the double blind phase of the study were escalated to 150 mg BID ripretinib, continued at the 150 mg QD dose, or discontinued in an open label-phase of the study.

[3] = Example 7: coadministration with strong CYP3A inhibitor (itraconazole), exposure; type: in vivo; details: coadministration of ripretinib with itraconazole
[4] = Example 8: coadministration with proton-pump inhibitor (pantoprazole), exposure; type: in vivo
Protocol: The effect of a proton-pump inhibitor on the exposure of ripretinib was evaluated.

[5] = test system: patients with advanced GIST; assay: Example 2: patient reported outcomes (EQ-5D-5L VAS, EORTC QLQ-C30); type: in vivo, human; details: 150 mg QD
Protocol: Patient reported outcomes were assessed by EQ-5D-5L, which provides a visual analogue scale (VAS), and EORTC QLQ-C30, which provides physical function and role function scales. The EQ-5D-5L VAS (or EQ-VAS) records the respondent's overall current health on a vertical visual analogue scale and provides a quantitative measure of the patient's perception of overall health. These patient outcomes were reported across 28-day cycles of receiving 150 mg QD ripretinib or placebo.
The EORTC QLQ-C30 is an assessment of function and symptoms of therapy by cancer patient, and is not specific to any cancer. The EORTC QLQ-C30 is a 30-question plus one global health status, including 5 functional scales, 3 symptom scales and a global health status.

[6] = test system: patients with advanced GIST; assay: Example 2/6: safety, treatment-emergent adverse events; type: in vivo, human
Protocol: as §1
Grade 3 or 4 treatment-emergent adverse events (TEAEs) occurred in 42 (49%) patients on the ripretinib arm compared to 19 (44%) on the placebo arm. Grade 3 or 4 TEAEs>5% of patients in the ripretinib arm were anemia (9%; n=8), abdominal pain (7%; n=6) and hypertension (7%; n=6). Grade 3 or 4 TEAEs>5% of patients in the placebo arm were anemia (14%; n=6). Table 1 lists TEAEs>15% in the ripretinib arm compared to placebo.
The safety of ripretinib and the impact of alopecia and palmar-plantar erythrodysesthesia (PPES) on patient-reported outcomes (PROs) of patients treated in the study described in Example 2 herein are described. […] When stratified by alopecia and PPES, patient reported assessments of function, overall health, and overall quality of life were maintained over time.

[7] = Solubility; type: physicochemical
[8] = 150 mg once daily, BICR, modified RECIST 1.1

CCn1c(=O)c(-c2cc(NC(=O)Nc3ccccc3)c(F)cc2Br)cc2cnc(NC)cc21 [ripretinib]
Disease Control Rate at 3 Months ([1]; Fourth-Line (n = 60)): 73%
Median Progression Free Survival (mPFS) ([1]; Fourth-Line (n = 60)): 30 weeks
Objective Response Rate by Best Response (Confirmed Only) ([1]; Fourth-Line (n = 60)): (8%)
Objective Response Rate by Best Response Includes Unconfirmed ([1]; Fourth-Line (n = 60)): 15%
Disease Control Rate at 3 Months ([1]; Second-Line (n = 37)): 81%
Median Progression Free Survival (mPFS) ([1]; Second-Line (n = 37)): 42 weeks
Objective Response Rate by Best Response (Confirmed Only) ([1]; Second-Line (n = 37)): (22%)
Objective Response Rate by Best Response Includes Unconfirmed ([1]; Second-Line (n = 37)): 30%
Disease Control Rate at 3 Months ([1]; Third-Line (n = 31)): 80%
Median Progression Free Survival (mPFS) ([1]; Third-Line (n = 31)): 40 weeks
Objective Response Rate by Best Response (Confirmed Only) ([1]; Third-Line (n = 31)): (13%)
Objective Response Rate by Best Response Includes Unconfirmed ([1]; Third-Line (n = 31)): 23%
Disease Control Rate at 3 Months ([1]; ≥Fourth-Line (n = 110)): 66%
Median Progression Free Survival (mPFS) ([1]; ≥Fourth-Line (n = 110)): 24 weeks
Objective Response Rate by Best Response (Confirmed Only) ([1]; ≥Fourth-Line (n = 110)): (7%)
Objective Response Rate by Best Response Includes Unconfirmed ([1]; ≥Fourth-Line (n = 110)): 11%
Benefit over placebo (PFS, OS), primary Exon 11 and Exon 9 mutation ([2]; 150 mg QD, FIGS. 17A, 17B): derive a benefit
OS hazard ratio (HR) vs placebo ([2]; 150 mg once daily): 0.36
OS rate at 12 months ([2]; 150 mg once daily): 65.4%
PFS hazard ratio (HR) compared to placebo ([2]; 150 mg once daily): 0.15
PFS rate at 6 months ([2]; 150 mg once daily): 51%
Patients with PD, % ([2]; 150 mg once daily): 18.8%
Patients with PD, number ([2]; 150 mg once daily): 16
Patients with stable disease (SD) for 12 weeks, number ([2]; 150 mg once daily): 40
Reduction of risk of disease progression or death compared to placebo ([2]; 150 mg once daily): 85%
Median PFS [2, 8]: 6.3 months
Objective response rate (ORR) [2, 8]: 9.4%
Median PFS ([2]; 150 mg once daily, initial ripretinib arm): 27.6 weeks
Median OS ([2]; 150 mg once daily, patients initially randomized to ripretinib): 15.1 months
PFS compared to placebo in subgroups with Exon 9, 11, 13 or 17 KIT mutations ([2]; FIG. 26A-D): PFS benefit in all assessed patient subgroups
PFS by BICR: events, % ([2]; double-blind cut): (60) %
PFS by BICR: number of events ([2]; double-blind cut): 51
PFS by BICR: events, % ([2]; open-label cut): (75) %
PFS by BICR: number of events ([2]; open-label cut): 64
Median OS ([2]; double-blind cut): 15 months
Median PFS by BICR ([2]; double-blind cut): 6.3 months
OS hazard ratio ([2]; double-blind cut): 0.36
Overall Response Rate by BICR ([2]; double-blind cut): 9%
Overall Survival: deaths, % ([2]; double-blind cut): (31) %
Overall Survival: number of deaths ([2]; double-blind cut): 26
PFS by BICR: deaths, % ([2]; double-blind cut): (6) %
PFS by BICR: deaths, number ([2]; double-blind cut): 5
PFS by BICR: progressive disease, % ([2]; double-blind cut): (54) %
PFS by BICR: progressive disease, number ([2]; double-blind cut): 46
PFS hazard ratio ([2]; double-blind cut): 0.15
Median OS ([2]; open-label cut): Not Reached
Median PFS by BICR ([2]; open-label cut): 6.3 months
OS hazard ratio ([2]; open-label cut): 0.43
Overall Response Rate by BICR ([2]; open-label cut): 12%
Overall Survival: deaths, % ([2]; open-label cut): (45) %
Overall Survival: number of deaths ([2]; open-label cut): 38
PFS by BICR: deaths, % ([2]; open-label cut): (7) %
PFS by BICR: deaths, number ([2]; open-label cut): 6
PFS by BICR: progressive disease, % ([2]; open-label cut): (68) %
PFS by BICR: progressive disease, number ([2]; open-label cut): 58
PFS hazard ratio ([2]; open-label cut): 0.16
Median PFS ([2]; patients crossed over from placebo to ripretinib): 20.0 weeks
Median OS ([2]; patients who crossed over from placebo to ripretinib): 11.6 months
Increase in AUC0-inf [3]: 99%
Increase in Cmax [3]: 36%
Effect on ripretinib exposure ([4]; 40 mg QD pantoprazole with 150 mg QD ripretinib): did not affect
Difference in plasma exposure ([4]; ripretinib coadministered with pantoprazole): No clinically significant differences
EORTC QLQ-C30 role function score, average improvement from baseline to C2D1 ([5]; 70 patients): 3.5
EQ-VAS score, average improvement from baseline to Cycle 2, Day 1 (C2D1) ([5]; 70 patients): 3.7
EORTC QLQ-C30 physical function score, average improvement from baseline to C2D1 ([5]; 71 patients): 1.6
EORTC QLQ-C30 Question C29 (overall health) score improvement ([5]; scale 1 to 7, 70 patients): 0.20
EORTC QLQ-C30 Question C30 (overall quality of life) score improvement ([5]; scale 1 to 7, 70 patients): 0.28
Alopecia in females (females vs males) ([6]; female, human, in vivo): 56.8%
Grade 3 or 4 abdominal pain: patients, % ([6]; human, in vivo): 7%
Grade 3 or 4 abdominal pain: patients, number ([6]; human, in vivo): 6
Grade 3 or 4 anemia: patients, number ([6]; human, in vivo): 8
Grade 3 or 4 hypertension: patients, % ([6]; human, in vivo): 7%
Grade 3 or 4 hypertension: patients, number ([6]; human, in vivo): 6
Patients with a TEAE leading to dose interruption ([6]; human, in vivo): 23.5%
Patients with a TEAE leading to dose reduction ([6]; human, in vivo): 7.1%
Grade 3/4 alopecia ([6]; in vivo): no patients
Grade 3 PPES ([6]; in vivo): no patients
Overall safety and tolerability profile ([6]; in vivo): favorable overall safety and tolerability profile
Serious adverse events of alopecia or PPES ([6]; in vivo): no serious adverse events
TEAEs during the crossover period ([6]; in vivo): no safety concerns
Alopecia in males (females vs males) ([6]; male, human, in vivo): 43.2%
Patients with a TEAE leading to death ([6]; ripretinib arm): 5.9%
Solubility [7]: pH-dependent solubility
